Source: patent US20160022665A2, “Pharmaceutical Compositions and Administrations Thereof” (Vertex Pharmaceuticals Incorporated, priority 2012, published 2016)
Each block holds one molecule with its values, some of them ahead of it.

What was measured:
ΔF508-CFTR = target: T1, ΔF508-CFTR (Homo sapiens, UniProt P13569, DEL508-508); assay: Membrane potential optical assay (fluorescent voltage sensing dyes, FLIPR III), identification of potentiator compounds (Protocol 1); type: cell-based
T1 construct: expressed in transfected cells
T1 sequence (P13569 with tags, fused parts or gaps DEL508-508): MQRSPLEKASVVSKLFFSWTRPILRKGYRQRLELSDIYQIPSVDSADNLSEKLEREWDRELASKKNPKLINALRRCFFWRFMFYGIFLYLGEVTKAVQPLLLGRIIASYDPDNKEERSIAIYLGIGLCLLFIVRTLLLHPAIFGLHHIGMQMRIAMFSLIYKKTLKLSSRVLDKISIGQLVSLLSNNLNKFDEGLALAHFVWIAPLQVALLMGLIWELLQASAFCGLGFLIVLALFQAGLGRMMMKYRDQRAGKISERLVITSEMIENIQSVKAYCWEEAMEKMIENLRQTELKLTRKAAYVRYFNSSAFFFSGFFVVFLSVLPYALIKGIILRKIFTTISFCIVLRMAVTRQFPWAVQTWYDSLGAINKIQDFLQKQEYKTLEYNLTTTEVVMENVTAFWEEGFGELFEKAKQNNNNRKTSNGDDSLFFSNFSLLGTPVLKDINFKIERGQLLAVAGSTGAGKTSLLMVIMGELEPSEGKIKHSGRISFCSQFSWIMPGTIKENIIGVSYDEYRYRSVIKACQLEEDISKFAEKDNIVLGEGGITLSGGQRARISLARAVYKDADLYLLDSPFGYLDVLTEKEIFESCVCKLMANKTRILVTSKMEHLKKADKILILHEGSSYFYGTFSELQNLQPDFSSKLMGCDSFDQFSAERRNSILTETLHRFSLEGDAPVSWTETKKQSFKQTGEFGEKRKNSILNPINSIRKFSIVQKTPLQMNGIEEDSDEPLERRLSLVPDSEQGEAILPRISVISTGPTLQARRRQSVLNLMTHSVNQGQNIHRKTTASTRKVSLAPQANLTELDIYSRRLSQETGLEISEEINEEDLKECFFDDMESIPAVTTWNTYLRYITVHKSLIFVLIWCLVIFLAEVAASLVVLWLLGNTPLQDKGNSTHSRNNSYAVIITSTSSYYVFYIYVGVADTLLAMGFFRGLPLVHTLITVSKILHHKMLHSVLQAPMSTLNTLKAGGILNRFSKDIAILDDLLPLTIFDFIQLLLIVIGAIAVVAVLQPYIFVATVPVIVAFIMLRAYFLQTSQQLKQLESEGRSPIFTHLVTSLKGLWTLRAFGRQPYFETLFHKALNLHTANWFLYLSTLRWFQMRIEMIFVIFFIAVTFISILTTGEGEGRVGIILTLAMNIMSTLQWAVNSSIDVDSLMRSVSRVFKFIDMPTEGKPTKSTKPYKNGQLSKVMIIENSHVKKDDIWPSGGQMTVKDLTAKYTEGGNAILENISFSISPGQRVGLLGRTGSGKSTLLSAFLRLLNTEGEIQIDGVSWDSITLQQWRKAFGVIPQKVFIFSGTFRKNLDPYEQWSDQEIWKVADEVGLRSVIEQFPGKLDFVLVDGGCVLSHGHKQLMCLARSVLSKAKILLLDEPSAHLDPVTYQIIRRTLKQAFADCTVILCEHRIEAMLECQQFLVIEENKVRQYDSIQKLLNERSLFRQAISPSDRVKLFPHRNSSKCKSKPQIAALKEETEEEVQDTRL
Text: The assay utilizes fluorescent voltage sensing dyes to measure changes in membrane potential using a fluorescent plate reader (e.g., FLIPR III, Molecular Devices, Inc.) as a readout for increase in functional ΔF508-CFTR in NIH 3T3 cells. The driving force for the response is the creation of a chloride ion gradient in conjunction with channel activation by a single liquid addition step after the cells have previously been treated with compounds and subsequently loaded with a voltage sensing dye.
To identify potentiators of ΔF508-CFTR, a double-addition HTS assay format was developed. This HTS assay utilizes fluorescent voltage sensing dyes to measure changes in membrane potential on the FLIPR III as a measurement for increase in gating (conductance) of ΔF508 CFTR in temperature-corrected ΔF508 CFTR NIH 3T3 cells. The driving force for the response is a Cl^− ion gradient in conjunction with channel activation with forskolin in a single liquid addition step using a fluorescent plate reader such as FLIPR III after the cells have previously been treated with potentiator compounds (or DMSO vehicle control) and subsequently loaded with a redistribution dye.
Bath Solution #1: (in mM) NaCl 160, KCl 4.5, CaCl2 2, MgCl2 1, HEPES 10, pH 7.4 with NaOH.
Chloride-free bath solution: Chloride salts in Bath Solution #1 (above) are substituted with gluconate salts. […]

[1] = Physical and chemical stability of Compound 3 in aqueous methylcellulose formulations; type: physicochemical; conditions: for physical stability of the HCl salt form in suspension: 0.5% methylcellulose/0.5% polysorbate 80 suspension vehicle, T(0), XRPD and 1H NMR
Protocol: A 100 mL stock solution of 0.5% by weight methylcellulose was prepared by stirring 0.5 g of methylcellulose with 99.5 g of purified water until completely dissolved (approximately 24 hours). The appropriate amount of Compound 3 HCl salt based on free base was weighed and transferred to a scintillation vial. The desired amount of 0.5% methylcellulose stock solution for making a 6 mg/mL based on free base (6.48 mg/mL based on HCl salt) was transferred into the vial and sonicated for 20 minutes and homogenized for approximately 5 minutes.
Methylcellulose (0.5 g) was combined with 99.0 g of purified water in a beaker and stirred in a 60-70° C. water bath for 30′-1 hr. The solution was stirred in a 0° C. ice/water bath for another 30′ or until clear. Polysorbate 80 (0.5 g) was added and stirring at room temperature followed for 30′-1 hr or until a clear solution was obtained.
The appropriate amount of Compound 3 HCl salt based on free base was weighed and transferred to a scintillation vial. The desired amount of 0.5% methylcellulose and 0.5% polysorbate 80 stock solution for making a 6 mg/mL based on free base (6.48 mg/mL based on HCl salt) was transferred into the vial and sonicated for 20 minutes with alternate stirring for 1-2 minutes. The solution was homogenized for approximately 1-2 minutes.

Emax (ΔF508-CFTR; Compound 1, potentiator activity, Protocol 1, read-out: % Activity (relative efficacy)): 25 to 100%
Compound: CC(C)(C)c1cc(C(C)(C)C)c(NC(=O)c2c[nH]c3ccccc3c2=O)cc1O [Compound 1, N-[2,4-bis(1,1-dimethylethyl)-5-hydroxyphenyl]-1,4-dihydro-4-oxoquinoline-3-carboxamide]

Compound: O=C(Nc1ccc(N2C3CCC2[C@H](O)C3)cc1C(F)(F)F)c1c[nH]c2cccc(C(F)(F)F)c2c1=O (stereo partly drawn) [Compound 2-5]
% Efficacy (ΔF508-CFTR; compounds of Formula II, 100% efficacy is the maximum response obtained with 4-methyl-2-(5-phenyl-1H-pyrazol-3-yl)phenol): +++ (“+++” if efficacy was calculated to be greater than 100%)

Compound: Cc1ccc(NC(=O)C2(c3ccc4c(c3)OC(F)(F)O4)CC2)nc1-c1cccc(C(=O)O)c1 [Compound 3 Form I, 3-(6-(1-(2,2-difluorobenzo[d][1,3]dioxol-5-yl)cyclopropanecarboxamido)-3-methylpyridin-2-yl)benzoic acid]
chemically stable (time) ([1]; room temperature, 0.5% methylcellulose/0.5% polysorbate 80 formulation vehicle, no sign of chemical degradation): at least 24 hrs | physically and chemically stable (time) ([1]; room temperature, methylcellulose formulation (0.5% by weight), no sign of chemical degradation): at least 24 hrs

Compound: Cc1ccc(NC(=O)C2(c3ccc4c(c3)OC(F)(F)O4)CC2)nc1-c1cccc(C(=O)O)c1.Cl [Compound 3 HCl salt, 3-(6-(1-(2,2-Difluorobenzo[d][1,3]dioxol-5-yl)cyclopropanecarboxamido)-3-methylpyridin-2-yl)benzoic acid.HCl salt]
physical stability of the HCl salt form in suspension [1]: not physically stable | physical stability of the HCl salt form in suspension ([1]; listed as HCl salt): quickly converted to Compound 3 Form I
